Assay results: ChEMBL document CHEMBL4373747 (ACS Med Chem Lett, 2020)
The source made the active and inactive calls. The calls are words filed in the database; no cut-off is given here.

Legend:
[1] = Efflux ratio of apparent permeability in human Caco2 cells incubated for 2 hrs by LC/MS analysis; assay type: ADME, cell-based, Caco-2; conditions: Caco-2
[2] = system: MV4-11; test: Induction of apoptosis in human MV4-11 cells assessed as viable cells at 0.25 uM incubated for 18 hrs by annexin V FITC and PI based flow cytometry (reference value: 53.01 to 53.07 %); assay type: functional; conditions: Homo sapiens, MV4-11, 18 h; read-out: Activity
[3] = Half life in NSG mouse; assay type: ADME; conditions: in vivo
[4] = system: MV4-11; test: Induction of apoptosis in human MV4-11 cells assessed as late apoptotic cells at 1 uM incubated for 18 hrs by annexin V FITC and PI based flow cytometry (reference value: 9.2 to 9.63 %); assay type: functional
[5] = Apparent permeability from apical to basolateral side in human Caco2 cells incubated for 2 hrs by LC/MS analysis; assay type: ADME, cell-based, Caco-2; conditions: Caco-2
[6] = system: MV4-11; test: Induction of apoptosis in human MV4-11 cells assessed as viable cells at 0.5 uM incubated for 18 hrs by annexin V FITC and PI based flow cytometry (reference value: 53.01 to 53.07 %); assay type: functional; conditions: Homo sapiens, MV4-11, 18 h; read-out: Activity
[7] = system: MV4-11; test: Induction of apoptosis in human MV4-11 cells assessed as early apoptotic cells at 4 uM incubated for 18 hrs by annexin V FITC and PI based flow cytometry (reference value: 19.46 to 22.17 %); assay type: functional
[8] = system: MV4-11; test: Induction of apoptosis in human MV4-11 cells assessed as late apoptotic cells incubated for 18 hrs by annexin V FITC and PI based flow cytometry; assay type: functional, cell-based
[9] = system: MV4-11; test: Induction of apoptosis in human MV4-11 cells assessed as early apoptotic cells at 2 uM incubated for 18 hrs by annexin V FITC and PI based flow cytometry (reference value: 19.46 to 22.17 %); assay type: functional
[10] = biological target: Histone deacetylase (Homo sapiens) (UniProt Q13547+O15379+Q9UBN7+Q92769+Q9UQL6+Q8WUI4+Q9BY41+Q96DB2+P56524+Q9UKV0+Q969S8); test: Inhibition of HDAC in human MV4-11 cells assessed as […] in acetylated histone H3 at 0.1 to 10 uM incubated for 6 hrs by Western blot analysis; assay type: cell-based

- efflux ratio at 2 h [1]: 0.64
- half-life [3]: 300 min
- Papp A→B at 2 h [5]: 3.45 ×10⁻⁶ cm/s
- inhibition [10]: Active
Structure (SMILES): CC(C)(C)c1ccc(C(=O)Nc2ccc(C(=O)NO)cc2)cc1
- viability at 0.25 µM [2]: 57.5%
- Activity [4]: 16.08%
- viability at 0.5 µM [6]: 48.7%
- Activity [7]: 32.14%
- Activity [8]: Dose-dependent effect
- Activity [9]: 27.83%
